Experimental data: patent publication US20110105603A1, “COMPOSITIONS AND METHODS FOR TREATING BETA-AMYLOID RELATED DISEASES” (priority 2009, published 2011)

What was measured:
[1] = test system: brain Aβ40 and brain Aβ42; experiment: Example 8: brain Aβ40 and Aβ42 ELISA after oral gavage in wild-type guinea pigs; assay type: in vivo; details: guinea pig, 10 mg/kg/day oral, 7 days
Aβ40 and Aβ42 = experiment: Example 9: brain, CSF and plasma Aβ after once-a-day gavage in guinea pigs; assay type: in vivo, guinea pig; details: once-a-day for one week oral
Source text: Guinea Pigs. Guinea Pigs (Harley strain, average weight 400 g corresponding to animals about 6 weeks old) were obtained from Charles River (Wilmington, Mass.). The animals were given free access to standard chow and water before and during the experiment. Gavage Formulation: Delivering a drug by gavage offers the advantage of accurate dosing but is traumatic and thus only suitable for relatively short dosing periods. Gavage delivery was used for the guinea pig work. E64d was resuspended in DMSO at indicated concentrations (see Figures, and below) and guinea pigs were gavaged daily using a feeding tube. Vehicle control animals were provided DMSO alone. Guinea Pig Gavage Dosing: Guinea pigs were gavaged daily for one week. Guinea pigs were lightly anesthetized with isoflurane prior to gavaging. 250 μl of compound solution was gavaged daily per animal and animals were sacrificed 4 hrs after the last dosing.

cathepsin B [2] = experiment: Example 9: brain cathepsin B activity in guinea pigs; assay type: in vivo, guinea pig; details: once-a-day oral
Method: (§1) Guinea Pig Gavage Dosing: Guinea pigs were gavaged daily for one week. Guinea pigs were lightly anesthetized with isoflurane prior to gavaging. 250 μl of compound solution was gavaged daily per animal and animals were sacrificed 4 hrs after the last dosing.
The brain cathepsin B activity in guinea pigs was measured as follows: Cathepsin B activity was determined using a fluorometric assay kit from Abcam, Inc. (catalog ab65300; Cambridge, Mass.) as described by the manufacturer.

BACE1 = experiment: Example 9: brain BACE1 activity in guinea pigs; assay type: in vivo, guinea pig; details: once-a-day oral
Method: as §1, with “dosing. The brain BACE1 activity in guinea pigs was measured by Beta secretase activity was determined using a fluorometric assay kit from Abcam (ab65357) as described by the manufacturer.” for “dosing.”

[3] = oral; cited from earlier work
[4] = cited from earlier work
healthy human volunteers = details: single or continuous 1 week oral administration at about 5 mg/kg/day; cited from earlier work
[5] = animals, radioactive AB-007; cited from earlier work
rats = details: cited from earlier work
dogs = details: cited from earlier work
transgenic APPlon mice = experiment: Example 9: Morris water maze, spatial memory deficit in transgenic APPlon mice; details: E64d-doped chow 1 or 3 months, either age group
Source text: Transgenic AD Mice. Transgenic mice expressing human APP containing the wt β-secretase site and the London mutant γ-secretase site sequences (also called “transgenic APPlon mice”, or “London APP mice”) were generated at the Ralph A. Johnson VA Medical Center (Charleston, S.C.) by methods previously described, see e.g., Hook, et al. (2008) J. Biol. Chem. 283:7745-7753. Briefly, APPLn was generated using site-directed mutagenesis to insert the V7171 London mutation into human APP cDNA. The mouse strain was created in a C57BL/6 mouse background using the Thy-1.2 expression cassette driven by the Thy-1 promoter containing an SV40 polyadenylation site. Mice were given free access to food and water before and during the experiment. […]
The memory deficit in transgenic APPln mice (APPlon mice) was measured using the Morris water maze test. Briefly, the spatial memory capability of each animal was assessed by the Morris water maze test as described e.g., by S. Mueller-Steiner (2006) Neuron 51:703-714; using catalog part no. […] Two days following the nonspatial pretraining, the hidden platform was placed in the center of one quadrant of the pool, the animal was released facing the pool wall in a random fashion, the time was recorded (latency period), and the distance traveled to reach the platform was measured using video recording (Smart Video Tracking System; SD Instruments).

[6] = test system: dogs with canine dementia; details: in one month; cited from earlier work
Cathepsin B [7] = biological target: Cathepsin B (Homo sapiens, UniProt P07858); experiment: biochemical

CCOC(=O)[C@H]1O[C@@H]1C(=O)N[C@@H](CC(C)C)C(=O)NCCC(C)C (relative stereo) [AB-007, (2S,3S)-trans-epoxysuccinyl-L-leucyl-amido-3-methylbutane ethyl ester]
reduction of brain Aβ42 relative to vehicle control [1]: 42%
CSF Aβ (Aβ40 and Aβ42): dose response reduction
CSF Aβ(42) (Aβ40 and Aβ42): dose response reduction
brain Aβ(40) (Aβ40 and Aβ42): dose response reduction
brain Aβ(42) (Aβ40 and Aβ42): dose response reduction
plasma Aβ(40) (Aβ40 and Aβ42): dose response reduction
plasma Aβ(42) (Aβ40 and Aβ42): dose response reduction
brain cathepsin B activity (cathepsin B [2]): dose response reduction
brain BACE1 activity (BACE1): increase
conversion in the gut to E64c [3]: rapidly and completely converted
effect on the central nervous system ([4]; high oral doses (500 mg/kg and 1 g/kg)): depress the central nervous system, causing sedation and mild inhibition of pentetrazol-induced seizure
influence on vision or hearing ([4]; maximal intravenous or oral doses, rats): do not influence vision or hearing
hematological tests, blood chemistry, urinalyses (healthy human volunteers): no changes
pulse, blood pressure, body temperature, grip force, electrocardiogram, physician observations (healthy human volunteers): no change
concentration in all other organs, including the brain [5]: corresponding to the plasma concentration or concentrations lower than plasma
kidney concentration relative to plasma concentration [5]: ~12 times
subacute no-effect dose (rats; oral, rats): under 80 mg/kg/day
chronic toxicity no-effect dose level (rats; rat, in vivo): below 2 mg/kg/day
target organs for toxicity (rats; rat, in vivo): liver and kidney
hepatic injury, species sensitivity (rats; rats versus other species): hepatic injury seen in rats does not occur in other species
chronic toxicity no-effect dose level (dogs; dog, in vivo): < 5 mg/kg/day
subacute no-effect dose (dogs; oral, dogs): < 40 mg/kg/day
mean latency period relative to age-matched controls (transgenic APPlon mice): significantly reduced

C#CCN(C)[C@H](C)Cc1ccccc1 [Anipryl]
affected dogs with improved behavior [6]: about 75%

[2H]C([2H])([2H])C(C)C[C@H](NC(=O)[C@H]1O[C@@H]1C(=O)O)C(=O)NCCC(C)C (stereo partly drawn) [Compound 1B, (2S,3S)-3-((S)-1-(Isopentylamino)-4-methyl-d3-1-oxopentan-2-ylcarbamoyl)oxirane-2-carboxylic acid]
IC50 (Cathepsin B [7]): 2 nM

[2H]C([2H])([2H])C([2H])(C[C@H](NC(=O)[C@H]1O[C@@H]1C(=O)O)C(=O)NCCC(C)C)C([2H])([2H])[2H] [Compound 2B, (2S,3S)-3-((S)-4,5,5,5-d4-1-(isopentylamino)-1-oxo-4-(methyl-d3)pentan-2-ylcarbamoyl)oxirane-2-carboxylic acid]
IC50 (Cathepsin B [7]): 1.5 nM

[2H][C@@](CC(C)C)(NC(=O)[C@H]1O[C@@H]1C(=O)O)C(=O)NCCC(C)C [Compound 3B, (2S,3S)-3-((S)-2-d1-1-(isopentylamino)-4-methyl-1-oxopentan-2-ylcarbamoyl)oxirane-2-carboxylic acid]
IC50 (Cathepsin B [7]): 1.9 nM

CC(C)CCNC(=O)[C@H](CC(C)C)NC(=O)[C@H]1O[C@@H]1C(=O)O [Compound E64c]
IC50 (Cathepsin B [7]): 1 nM

[2H]C([2H])([2H])C([2H])(CCNC(=O)[C@H](CC(C)C)NC(=O)[C@H]1O[C@@H]1C(=O)OCC)C([2H])([2H])[2H] [Compound E64d7]
CSF Aβ (Aβ40 and Aβ42): dose response reduction
CSF Aβ(42) (Aβ40 and Aβ42): dose response reduction
brain Aβ(40) (Aβ40 and Aβ42): dose response reduction
brain Aβ(42) (Aβ40 and Aβ42): dose response reduction
plasma Aβ(40) (Aβ40 and Aβ42): dose response reduction
plasma Aβ(42) (Aβ40 and Aβ42): dose response reduction
brain cathepsin B activity (cathepsin B [2]): dose response reduction
brain BACE1 activity (BACE1): increase
